Key:
Assay in all cases: relative viability (nuclei count vs DMSO), 5 days (fraction); higher = more cells survive
[1] = compound: CC1=C(C(=NN1)C)CC2=C(C3=C(S2)N(C(=O)N(C3=O)C)CC(C)C)C(=O)N4C[C@@H](CO4)O
Method in brief: (§1)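 Acceptance criteria were a control CV below 25% and at least one doubling per plate. Lung cancer cell lines in 1536-well plates got five library-drug doses (not always all listed) √10 apart by pinning and were left 5 days with no medium change. Viability divides treated-well nuclei by vehicle-well nuclei and is the median across plates. Nuclei were counted by MetaXpress from 4× Hoechst images.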

IDH-C35 = compound: Cc1ccccc1C(C(=O)NC1CCCCC1)N(C(=O)Cn1ccnc1C)c1cccc(F)c1 [IDH-C35]
Method in brief: as §1

[2] = compound: CC1=C(C(=NN1)C)CC2=C(C3=C(S2)N(C(=O)N(C3=O)C)CC(C)C)C(=O)N4C[C@@H](CO4)O + CS(=O)(=O)N1CCN(Cc2cc3nc(-c4cccc5[nH]ncc45)nc(N4CCOCC4)c3s2)CC1 [Pictilisib] (partner 1 µM)
Method in brief: (§2)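 Values are medians from duplicate plates. Each reflects relative viability, defined as the nuclei count of treated wells over that of vehicle wells. Lung cancer cell lines in 1536-well plates were pin-tool dosed one day after seeding with one drug alone or with a fixed anchor-drug dose plus five library-drug doses (not always all listed) in √10 steps, then fixed, stained and imaged at 4× after 5 days.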

[3] = compound: CC1=C(C(=NN1)C)CC2=C(C3=C(S2)N(C(=O)N(C3=O)C)CC(C)C)C(=O)N4C[C@@H](CO4)O + Cc1nc(NC(=O)N2CCC[C@H]2C(N)=O)sc1-c1ccnc(C(C)(C)C(F)(F)F)c1 [Alpelisib] (partner 2 µM)
Method in brief: as §2

For UMC-11, the relative viability ([1]; 0.0025 µM) was 1.08, the relative viability ([1]; 0.007906 µM) was 1.04 and the relative viability ([1]; 0.025 µM) was 0.974. The relative viability ([1]; 0.07906 µM) was 0.993, the relative viability ([1]; 0.25 µM) was 1.18 and the relative viability (IDH-C35; 0.08 µM) was 1.03. For the same cell line, the relative viability (IDH-C35; 0.253 µM) was 0.975, the relative viability (IDH-C35; 0.8 µM) was 0.986 and the relative viability (IDH-C35; 2.53 µM) was 0.951. For the same cell line, the relative viability (IDH-C35; 8 µM) was 1.02, the relative viability ([2]; first compound 0.0025 µM) was 0.917 and the relative viability ([2]; first compound 0.007906 µM) was 0.673. The relative viability ([2]; first compound 0.025 µM) was 0.785, the relative viability ([2]; first compound 0.07906 µM) was 0.921 and the relative viability ([2]; first compound 0.25 µM) was 0.907. The relative viability ([3]; first compound 0.0025 µM) was 1.03, the relative viability ([3]; first compound 0.007906 µM) was 0.897 and the relative viability ([3]; first compound 0.025 µM) was 0.75. The relative viability ([3]; first compound 0.07906 µM) was 0.986 and the relative viability ([3]; first compound 0.25 µM) was 0.977.
